Values joined by “and” are separate entries in the source; they are usually repeats but may differ in a detail not shown here. Equal values may be shown once.
Assay: phase I safety and tolerability, 120 h continuous infusion every 4 weeks
[1] = Table 3, 6 mg m-2 cycle-1, 4 patients studied
[2] = Table 3, 12 mg m-2 cycle-1, 3 patients studied
[3] = Table 3, 24 mg m-2 cycle-1, 3 patients studied
[4] = Table 3, 400 mg m-2 cycle-1, 6 patients studied
[5] = Table 3, 550 mg m-2 cycle-1, 6 patients studied
[6] = Table 3, 700 mg m-2 cycle-1, 5 patients studied
[7] = Table 3, all dose levels, 39 patients
[8] = Table 3, all dose levels, 39 patients, incl. combination
[9] = Table 4, after infusion (day 6-28), 550 mg m-2 cycle-1, 6 patients studied
[10] = Table 4, after infusion (day 6-28), 700 mg m-2 cycle-1, 5 patients studied
[11] = Table 4, after infusion (day 6-28), all dose levels, 39 patients
[12] = Table 4, after infusion (days 6-28), 3 mg m-2 cycle-1, 3 patients studied
[13] = Table 4, after infusion (days 6-28), 6 mg m-2 cycle-1, 4 patients studied
[14] = Table 4, after infusion (days 6-28), 24 mg m-2 cycle-1, 3 patients studied
[15] = Table 4, after infusion (days 6-28), 96 mg m-2 cycle-1, 3 patients studied
[16] = Table 4, after infusion (days 6-28), 400 mg m-2 cycle-1, 6 patients studied
[17] = Table 4, after infusion (days 6-28), 550 mg m-2 cycle-1, 6 patients studied
[18] = Table 4, after infusion (days 6-28), 700 mg m-2 cycle-1, 5 patients studied
[19] = Table 4, after infusion (days 6-28), all dose levels, 39 patients
[20] = Table 4, during infusion (day 1-5), 700 mg m-2 cycle-1, 5 patients studied
[21] = Table 4, during infusion (day 1-5), all dose levels, 39 patients

## N=C(N)c1cccc2c1CCC2=NN=C(N)N [SAM486A]
550 mg m-2 cycle-1, six patients
  patients with grade 4 granulocytopenia: three
120 h continuous infusion every 4 weeks
  maximum tolerated dose (MTD): 400 mg m-2 cycle-1
Figure 4
  correlation coefficient AUC vs granulocytopenia: 0.6931
  correlation coefficient dose vs granulocytopenia: 0.5814
Table 3, 3 mg m-2 cycle-1, 3 patients studied
  Haemoglobin grade 1-4, no. of patients: 2 patients
[1]
  Haemoglobin grade 1-4, no. of patients: 2 patients
  Thrombocytes (platelets) grade 1-4, no. of patients: 1 patients
  Thrombocytes grade 3-4, no. of patients: 1 patients
[2]
  Haemoglobin grade 1-4, no. of patients: 2 patients
  Haemoglobin grade 3-4, no. of patients: 1 patients
[3]
  Haemoglobin grade 1-4, no. of patients: 3 patients
  Haemoglobin grade 3-4, no. of patients: 1 patients
Table 3, 48 mg m-2 cycle-1, 4 patients studied
  Haemoglobin grade 1-4, no. of patients: 2 patients
Table 3, 96 mg m-2 cycle-1, 3 patients studied
  Haemoglobin grade 1-4, no. of patients: 1 patients
Table 3, 200 mg m-2 cycle-1, 2 patients studied
  Leukocytes (WBC) grade 1-4, no. of patients: 1 patients
[4]
  Granulocytes (AGC) grade 1-4, no. of patients: 2 patients
  Granulocytes (AGC) grade 3-4, no. of patients: 1 patients
  Haemoglobin grade 1-4, no. of patients: 3 patients
  Leukocytes (WBC) grade 1-4, no. of patients: 2 patients
[5]
  Granulocytes (AGC) grade 1-4, no. of patients: 4 patients
  Granulocytes (AGC) grade 3-4, no. of patients: 4 patients
  Haemoglobin grade 1-4, no. of patients: 4 patients
  Haemoglobin grade 3-4, no. of patients: 1 patients
  Leukocytes (WBC) grade 1-4, no. of patients: 5 patients
  Leukocytes (WBC) grade 3-4, no. of patients: 3 patients
  Thrombocytes (platelets) grade 1-4, no. of patients: 1 patients
  Thrombocytes grade 3-4, no. of patients: 1 patients
[6]
  Granulocytes (AGC) grade 1-4, no. of patients: 4 patients
  Granulocytes (AGC) grade 3-4, no. of patients: 3 patients
  Haemoglobin grade 1-4, no. of patients: 2 patients
  Haemoglobin grade 3-4, no. of patients: 1 patients
  Leukocytes (WBC) grade 1-4, no. of patients: 4 patients
  Leukocytes (WBC) grade 3-4, no. of patients: 3 patients
  Thrombocytes (platelets) grade 1-4, no. of patients: 2 patients
[7]
  Haemoglobin grade 1-4, Total (%): 21 (54) patients (%)
  Haemoglobin grade 3-4, Total (%): 4 (10) patients (%)
  Thrombocytes grade 3-4, Total (%): 2 (5) patients (%)
[8]
  Granulocytes (AGC) grade 1-4, Total (%): 12 (31) patients (%)
  Granulocytes (AGC) grade 3-4, Total (%): 9 (23) patients (%)
  Leukocytes (WBC) grade 1-4, Total (%): 14 (36) patients (%)
  Leukocytes (WBC) grade 3-4, Total (%): 7 (18) patients (%)
Table 4, after infusion (day 6-28), 400 mg m-2 cycle-1, 6 patients studied
  Fatigue grade 3-4, no. of patients: 1 patients
[9]
  Anorexia grade 3-4, no. of patients: 1 patients
  Atrial fibrillation grade 3-4, no. of patients: 1 patients
  Condition aggravated grade 3-4, no. of patients: 1 patients
[10]
  Dementia grade 3-4, no. of patients: 1 patients
  Dyspnea grade 3-4, no. of patients: 1 patients
  Fatigue grade 3-4, no. of patients: 1 patients
  Somnolence grade 3-4, no. of patients: 1 patients
  Vesicular rash grade 3-4, no. of patients: 1 patients
[11]
  Anorexia grade 3-4, Total (%): 1 (3) patients (%)
  Atrial fibrillation grade 3-4, Total (%): 1 (3) patients (%)
  Condition aggravated grade 3-4, Total (%): 1 (3) patients (%)
  Dementia grade 3-4, Total (%): 1 (3) patients (%)
  Dyspnea grade 3-4, Total (%): 1 (3) patients (%)
  Fatigue grade 3-4, Total (%): 2 (5) patients (%)
  Somnolence grade 3-4, Total (%): 1 (3) patients (%)
  Vesicular rash grade 3-4, Total (%): 1 (3) patients (%)
Table 4, after infusion (day 6-28), all dose levels, 39 patients, incl. combination
  Mucositis nos grade 3-4, Total (%): 1 (3) patients (%)
[12]
  Anorexia grade 1-4, no. of patients: 1 patients
  Fatigue grade 1-4, no. of patients: 1 patients
[13]
  Fatigue grade 1-4, no. of patients: 1 patients
  Nausea grade 1-4, no. of patients: 1 patients
Table 4, after infusion (days 6-28), 12 mg m-2 cycle-1, 3 patients studied
  Fatigue grade 1-4, no. of patients: 1 patients
[14]
  Fatigue grade 1-4, no. of patients: 1 patients
  Nausea grade 1-4, no. of patients: 1 patients
  Vomiting grade 1-4, no. of patients: 1 patients
[15]
  Nausea grade 1-4, no. of patients: 1 patients
  Vomiting grade 1-4, no. of patients: 1 patients
[16]
  Anorexia grade 1-4, no. of patients: 3 patients
  Fatigue grade 1-4, no. of patients: 2 patients
  Nausea grade 1-4, no. of patients: 1 patients
[17]
  Anorexia grade 1-4, no. of patients: 1 patients
  Fatigue grade 1-4, no. of patients: 2 patients
  Nausea grade 1-4, no. of patients: 3 patients
  Vomiting grade 1-4, no. of patients: 3 patients
[18]
  Fatigue grade 1-4, no. of patients: 2 patients
  Nausea grade 1-4, no. of patients: 2 patients
  Vomiting grade 1-4, no. of patients: 3 patients
[19]
  Anorexia grade 1-4, Total (%): 5 (13) patients (%)
  Fatigue grade 1-4, Total (%): 10 (26) patients (%)
  Vomiting grade 1-4, Total (%): 8 (21) patients (%)
Table 4, after infusion (days 6-28), all dose levels, 39 patients, incl. combination
  Nausea grade 1-4, Total (%): 10 (26) patients (%)
Table 4, during infusion (day 1-5), 550 mg m-2 cycle-1, 6 patients studied
  Asthenia grade 3-4, no. of patients: 1 patients
[20]
  Condition aggravated grade 3-4, no. of patients: 1 patients
  Vesicular rash grade 3-4, no. of patients: 1 patients
  Vomiting grade 3-4, no. of patients: 1 patients
[21]
  Asthenia grade 3-4, Total (%): 1 (3) patients (%)
  Condition aggravated grade 3-4, Total (%): 1 (3) patients (%)
  Vesicular rash grade 3-4, Total (%): 1 (3) patients (%)
  Vomiting grade 3-4, Total (%): 1 (3) patients (%)
Table 4, during infusion (days 1-5), 400 mg m-2 cycle-1, 6 patients studied
  Nausea grade 1-4, no. of patients: 1 patients
Table 4, during infusion (days 1-5), 550 mg m-2 cycle-1, 6 patients studied
  Nausea grade 1-4, no. of patients: 2 patients
Table 4, during infusion (days 1-5), 700 mg m-2 cycle-1, 5 patients studied
  Nausea grade 1-4, no. of patients: 2 patients
Table 4, during infusion (days 1-5), all dose levels, 39 patients
  Nausea grade 1-4, Total (%): 5 (13) patients (%)
After infusion, any causality
  mild to moderate nausea and vomiting, incidence: 31%
After the infusion, any causality
  fatigue, incidence in all patients: 51%
All patients
  anorexia considered related to SAM486A, incidence: 13%
  fatigue considered related to SAM486A, incidence: 26%
  nausea considered related to SAM486A, incidence: 26%
  vomiting considered related to SAM486A, incidence: 21%
During infusion, any causality
  mild to moderate nausea and vomiting, incidence: 15%
In vivo
  changes in electrolytes, renal function, LVEF: no significant drug-related changes
  correlation coefficient Cmax vs granulocytopenia: 0.6794
  dose with reversible dose-limiting neutropenia: 550 mg m^–2cycle^–1 and 700 mg m^–2cycle^–1
  fever associated with granulocytopenia: three
  median day of granulocyte nadir: 21 day of the cycle
  patients with grade 4 granulocytopenia: three out of five
  patients with some worsening in performance status: eight of the 11
  recommended dose for phase II studies: 400 and 400 mg m-2 cycle-1
Without growth factors
  time to spontaneous recovery from granulocyte nadir: ≤ 1 week

Reference: publication PMC2363502
